# Test results: patent publication US7109193B2, “Tricyclic diazepines tocolytic oxytocin receptor antagonists” (Wyeth, priority 2001, dated 2006)
# Molecular target: T1, human vasopressin V2 receptor subtype (Homo sapiens, UniProt P30518)
# T1 construct: host or cells: CHO cells (pZeoSV vector)
# Assay: Vasopressin binding in Chinese Hamster Ovary cell membranes expressing human vasopressin V2 subtype receptors
# Details: 100 nM, CHO cell membranes, [3H]arginine vasopressin, values without parentheses
# Experimental: Vasopressin Binding in Chinese Hamster Ovary Cell Membranes Expressing Human Vasopressin V2 Subtype Receptors
# Chinese Hamster Ovary (CHO) cells stably transfected with the human V2 subtype receptors were obtained from M. Thibonnier, Case Western Reserve University School of Medicine, Cleveland, Ohio.
# A. Passaging and Amplification of Cells:
# The trypsin is removed by aspiration and the cells dislodged by tapping. Cell Culture medium (e.g. 30 mL for 1:30 split) is immediately added and mixed well to inactivate trypsin. 1 mL of detached cells is added to new culture flasks containing fresh Cell Culture medium (e.g. into 25 mL per T-150 flask), and mixed gently. The cells are incubated at 37° C. in 5% CO2. The medium is changed at 3 to 4 day interval (or as appropriate). […] All steps are done under sterile conditions. B. Membrane Preparation: The cells are washed twice gently with Hank's Balanced Salt solution (e.g. use 10 mL per T-150 flask). […] The contents are transferred to centrifuge tubes (50 mL) kept in ice bath. All subsequent steps are done at 4° C. The tubes are centrifuged at 300×g for 15 min (1380 rpm on SORVAL, Model RT6000D, using the rotor for 50 mL tubes). The supernatant is discarded and the cells suspended in homogenizing buffer (10 mM Tris-HCl containing 0.25 M sucrose and 1 mM EDTA, pH 7.4) ensuring that the volume of the buffer is about ten times the volume of the cell pellet. The cells are pooled into a centrifuge tube (50 mL) and homogenized with a Polytron at setting 6 for 10 sec. The homogenate is transferred into a Potter-Elvjehm homogenizer and homogenized with 3 strokes. The homogenate is centrifuged at 1500×g for 60 min at 4° C. (3100 rpm using SORVAL, model RT6000D, using the rotor for 50 mL tubes). The pellet is discarded. The supernatant is centrifuged at 100,000×g for 60 min. at 4° C. (Beckman L8-80M ultracentrifuge; spin at 37,500 rpm with rotor type 70 Ti for 50 mL tubes; 38,000 rpm with type 80Ti for 15 mL tubes; or 35,800 rpm with rotor type 45Ti). The supernantant is discarded and the pellet suspended in 3 to 4 mL of Tris buffer (50 mM TRIS-HCl, pH 7.4). The protein content is estimated by the Bradford or Lowry method. The volume of the membrane suspension is adjusted with the membrane buffer (50 mM Tris-HCl containing 0.1% BSA and 0.1 mM PMSF) to give 3.0 mg/mL (or as appropriate) of protein. The membranes are aliquoted and stored at −70° C. C. Radioligand Binding Assay: In wells of a 96-well format microtiter plate, is added 90, 110 or 130 μL (to make up a final volume of 200 μL) of assay buffer containing 50 mM of Tris-HCl (pH 7.4), […], 1 mg % aprotinin, 1 mg % leupeptin, 2 mg % 1,10-phenanthroline, 10 mg % trypsin inhibitor, and 0.1 mM PMSF. The inhibitors are added on the day of the experiment. The components are mixed at room temperature, and then kept in ice bath following adjustment of the pH to 7.4. […] For vasopressin and other peptide ligands 20 μL of 50% DMSO is added and the assay buffer volume is adjusted accordingly. To each well is added 50 μL of frozen membrane suspension thawed immediately prior to use and diluted in assay buffer to the required concentration (equivalent to 25 to 50 μg of protein/well as needed). 20 μL of 8 nM [^3H]arginine vasopressin ligand in the assay buffer, prepared just before use is added and incubated at room temperature for 60 min. shaking the plate on a mechanical shaker for the first 15 min. The incubation is stopped by rapid filtration of the plate contents followed by wash with ice-cold buffer (50 mM Tris-HCl, pH 7.4) using a cell harvester (Tomtek and Printed filtermat-B filter paper). The filter paper is thoroughly dried (7–12 min. in a microwave oven) and impregnated with MeltiLex B/H melt-on scintillation wax sheets and the radioactivity counted in a betaplate scintillation counter.
# T1 sequence (P30518 whole entry): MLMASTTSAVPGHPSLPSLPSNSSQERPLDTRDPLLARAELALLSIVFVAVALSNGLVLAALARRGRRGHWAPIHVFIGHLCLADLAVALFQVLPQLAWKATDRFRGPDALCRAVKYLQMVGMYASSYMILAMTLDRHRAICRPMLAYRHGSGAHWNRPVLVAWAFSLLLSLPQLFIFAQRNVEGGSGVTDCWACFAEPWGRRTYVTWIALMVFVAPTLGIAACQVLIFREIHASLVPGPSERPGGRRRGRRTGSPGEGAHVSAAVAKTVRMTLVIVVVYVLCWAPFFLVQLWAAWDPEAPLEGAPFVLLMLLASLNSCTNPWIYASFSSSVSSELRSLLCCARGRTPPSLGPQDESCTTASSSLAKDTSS
inhibition at 0.1 µM,SMILES,V2 % inhibition @ 100 nM
–,"COc1cccc(-c2ccc(C(=O)N3Cc4ccc(C(=O)NCCC5CCCN5C)n4Cc4ccccc43)cc2C)c1 (stereo not drawn) [Example 164, 10-[(3′-Methoxy-2-methyl[1′1′-biphenyl]-4-yl)carbonyl]-N-[2-(1-methyl-2-pyrrolidinyl)ethyl]-10,11-dihydro-5H-pyrrolo[2,1-c][1,4]benzodiazepine-3-carboxamide]",16%
–,"O=C(c1ccc(-c2cccc3ccccc23)cc1Cl)N1Cc2ccc(C(=O)N3CCC[C@H]3CN3CCCC3)n2Cc2ccccc21 [Example 261, {10-[2-Chloro-4-(1-naphthyl)benzoyl]-10,11-dihydro-5H-pyrrolo[2,1-c][1,4]benzodiazepin-3-yl}[(2S)-2-(1-pyrrolidinylmethyl)pyrrolidinyl]methanone]",18%
–,"COC(=O)c1ccc2c(c1)N(C(=O)c1ccc(-c3ccccc3C(F)(F)F)c(C)c1)Cc1cccn1C2 [Example 26, Methyl 10-{[2-methyl-2′-trifluoromethyl-[1,1′-biphenyl]-4-yl]carbonyl}-10,11-dihydro-5H-pyrrolo[2,1-c][1.4]benzodiazepine-8-carboxylate]",3%
–,"Cc1ccccc1-c1ccc(C(=O)N2Cc3ccc(C(=O)N4CCC[C@H]4CN4CCCC4)n3Cc3ccccc32)cc1C [Example 260, {10-[(2,2′-Dimethyl[1,1′-biphenyl]-4-yl)carbonyl]-10,11-dihydro-5H-pyrrolo[2,1-c][1,4]benzodiazepin-3-yl}[(2S)-2-(1-pyrrolidinylmethyl)pyrrolidinyl]methanone]",20%
–,"COc1ccccc1-c1ccc(C(=O)N2Cc3ccc(C(=O)N4CCC[C@H]4CN4CCCC4)n3Cc3ccccc32)cc1 [Example 265, {10-[(2′-Methoxy[1,1′-biphenyl]-4-yl)carbonyl]-10,11-dihydro-5H-pyrrolo[2,1-c][1,4]benzodiazepin-3-yl}[(2S)-2-(1-pyrrolidinylmethyl)pyrrolidinyl]methanone]",10%
16%,"O=C(NCCCn1ccnc1)c1ccc2n1Cc1ccccc1N(C(=O)c1ccc(-c3cccc4ccccc34)cc1Cl)C2 [Example 134, 10-[2-Chloro-4-(1-naphthyl)benzoyl]-N-[3-(1H-imidazol-1-yl)propyl]-10,11-dihydro-5H-pyrrolo[2,1-c][1,4]benzodiazepine-3-carboxamide]",–
–,"COc1cc(C(=O)N2Cc3ccc(C(=O)N(C)CCCN(C)C)n3Cc3ccccc32)ccc1-n1c(C)ccc1C [Example 310, N-[3-(Dimethylamino)propyl]-10-[4-(2,5-dimethyl-i H-pyrrol-1-yl)-3-methoxybenzoyl]-N-methyl-10,11-dihydro-5H-pyrrolo[2,1-c][1,4]benzodiazepine-3-carboxamide]",12%
8%,"Cc1ccccc1-c1ccc(C(=O)N2Cc3ccc(C(=O)N4CCC(N5CCCC5)CC4)n3Cc3ccccc32)cc1 [Example 141, {10-[(2′-Methyl[1,1′-biphenyl]-4-yl)carbonyl]-10,11-dihydro-5H-pyrrolo[2,1-c][1,4]benzodiazepin-3-yl}[4-(1-pyrrolidinyl)-1-piperidinyl]methanone]",–
1%,"Cc1cc(C(=O)N2Cc3ccc(C(=O)NCCCn4ccnc4)n3Cc3ccccc32)ccc1-c1ccccc1C(F)(F)F [Example 135, N-[3-(1H-Imidazol-1-yl)propyl]-10-{[2-methyl-2′-(trifluoromethyl)[1,1′-biphenyl]-4-yl]carbonyl}-10,11-dihydro-5H-pyrrolo[2,1-c][1,4]benzodiazepine-3-carboxamide]",–
-5%,"COc1cc(C(=O)N2Cc3ccc(C(=O)N4CCC(N5CCCC5)CC4)n3Cc3ccccc32)ccc1-c1ccccc1C [Example 142, {10-[(2-Methoxy-2′-methyl[1,1′-biphenyl]-4-yl)carbonyl]-10,11-dihydro-5H-pyrrolo[2,1-c][1,4]benzodiazepin-3-yl}[4-(1-pyrrolidinyl)-1-piperidinyl]methanone]",–
–,"COc1ccccc1-c1ccc(C(=O)N2Cc3ccc(C(=O)N4CC[C@@H](N(C)C)C4)n3Cc3ccccc32)cc1OC [Example 282, {10-[(2,2′-Dimethoxy[1,1′-biphenyl]-4-yl)carbonyl]-10,11-dihydro-5H-pyrrolo[2,1-c][1,4]benzodiazepin-3-yl][(3R)-3-(dimethylamino)pyrrolidinyl]methanone]",−17%
–,"COc1cc(C(=O)N2Cc3ccc(C(=O)N4CCC[C@H]4CN4CCCC4)n3Cc3ccccc32)ccc1-c1ccccc1Cl [Example 33, {[10-(2-Methoxy)-2′-chloro-[1,1′-biphenyl]-4-yl]carbonyl}-[(2S)-[(2-pyrrolidin-1-yl)methyl]pyrrolidin-1-yl]-10,11-dihydro-5H-pyrrolo[2,1-c][1,4]benzodiazepin-3-yl-methanone]",11%
–,"COc1cccc(-c2ccc(C(=O)N3Cc4ccc(C(=O)N5CC[C@@H](N(C)C)C5)n4Cc4ccccc43)cc2OC)c1 [Example 283, {10-[(2,3′-Dimethoxy[1,1′-biphenyl]-4-yl)carbonyl]-10,11-dihydro-5H-pyrrolo[2,1-c][1,4]benzodiazepin-3-yl}[(3R)-3-(dimethylamino)pyrrolidinyl]methanone]",29%
–,"COc1cccc(-c2cc(OC)c(C(=O)N3Cc4ccc(C(=O)N5CC[C@@H](N(C)C)C5)n4Cc4ccccc43)cc2Cl)c1 [Example 275, {10-[(6-Chloro-3,3′-dimethoxy[1,1′-biphenyl]-4-yl)carbonyl]-10,11-dihydro-5H-pyrrolo[2,1-c][1,4]benzodiazepin-3-yl}[(3R)-3-(dimethylamino)pyrrolidinyl]methanone]",21%
6%,"COc1cccc(-c2ccc(C(=O)N3Cc4ccc(C(=O)NCCN5CCCCC5)n4Cc4ccccc43)cc2C)c1 [Example 151, 10-[(3′-Methoxy-2-methyl[1,1′-biphenyl]-4-yl)carbonyl]-N-[2-(1-piperidinyl)ethyl]-10,11-dihydro-5H-pyrrolo[2,1-c][1,4]benzodiazepine-3-carboxamide]",–
19%,"COc1ccccc1-c1ccc(C(=O)N2Cc3ccc(C(=O)N(C)CCCN(C)C)n3Cc3ccccc32)cc1OC [Example 107, 10-[(2,2′-Dimethoxy[1,1′-biphenyl]-4-yl)carbonyl]-N-[3-(dimethylamino)propyl]-N-methyl-10,11-dihydro-5H-pyrrolo[2,1-c][1,4]benzodiazepine-3-carboxamide]",–
5%,"COc1cc(-c2ccccc2C)c(Cl)cc1C(=O)N1Cc2ccc(C(=O)NCCCn3ccnc3)n2Cc2ccccc21 [Example 129, 10-[(6-Chloro-3-methoxy-2′-methyl[1,1′-biphenyl]-4-yl)carbonyl]-N-[3-(1H-imidazol-1-yl)propyl]-10,11-dihydro-5H-pyrrolo[2,1-c][1,4]benzodiazepine-3-carboxamide]",–
13%,"COc1cc(C(=O)N2Cc3ccc(C(=O)NCCCn4ccnc4)n3Cc3ccccc32)ccc1-c1cccc2ccccc12 [Example 131, N-[3-(1H-Imidazol-1-yl)propyl]-10-[3-methoxy-4-(1-naphthyl)benzoyl]-10,11-dihydro-5H-pyrrolo[2,1-c][1,4]benzodiazepine-3-carboxamide]",–
